Data: paper PMC7046148 (Scientific Reports, 2020)

Columns and labels:
[1] = target: T1, SALL4 (Homo sapiens, UniProt Q96SW2+Q9UJQ4); test: SALL4 nuclear protein expression (MFI) by high content imaging, Gibco hiPSCs; assay type: cell-based
T1 construct: Unmodified Gibco hiPSCs were either differentiated in APEL2 + GSKi or maintained in mTeSR1, and SALL4 nuclear protein expression was monitored; endogenous in cells; host or cells: Gibco hiPSCs; XCL-1 SALL4 mock hiPSC clone
Description: (§1) High content imaging analysis of SALL4 immunofluorescence with DAPI counterstaining in hiPSCs. […] Data represent the mean +/− SEM from 2 independent experiments.

[2] = tested on: human pluripotent stem cells (hPSCs); details: cited from earlier work
[3] = tested on: hiPSCs; test: Viability of hiPSCs in 3D culture (CellTiter Glo 3D); assay type: cell-based, human; details: 20 µM thalidomide or 3 µM atRA, 2 d LPM differentiation in 3D fibrin
Description: Supplementary Figure 10. Normalized viability of hiPSCs differentiated to LPM for 2 days in 3D […]
µM atRA. Data represent replicate wells in a single experiment, n=6, of hiPSCs that were cultured in fibrin for 1 day in mTeSR1 followed by 2 days of culture in APEL2+GSKi in the presence of either 0.1% […]
differentiation, the medium was replaced with CellTiter Glo 3D reagent (diluted 1:1 in DPBS), and luminescence was measured on a plate reader.
Normalized luminescence is reported as mean +/- SD of 6 replicate wells per condition. No statistical differences was observed via one-way ANOVA and Dunnett’s post-hoc test (α=0.05).
(1 picture or pasted object on this page, not shown here)

[4] = tested on: Gibco hiPSCs; test: LPM differentiation assay (FOXF1 high content imaging), Gibco hiPSCs; details: for IC50: Homo sapiens, 48 h, read-out: IC50 (±SEM) in LPM differentiation assay
Description: hiPSCs (Gibco or XCL-1 clones) were grown in mTeSR-1 on Matrigel, passaged into small clumps with Versene (4.5 min under normal culture conditions), counted as a single-cell suspension as described above, and seeded as small clumps at approximately 10,000 cells/well (30,000 cells/cm^2, ~15% confluence) in 100 µL mTeSR1 on Matrigel-coated µClear® 96-well plates (Greiner) for 1 d under normal culture conditions. On the day after seeding, the medium was replaced with 100 µL/well of mTeSR-1 (control) or APEL2 + GSKi containing either DMSO or diluted compounds (for a final DMSO concentration of 0.2%). The same conditions were replenished the following day for a total of 2 d of differentiation, and the following day (3 d after seeding), the medium was aspirated, and hiPSCs were fixed in 10% NBF for 15 min at room temperature.
(§8) Immunofluorescence staining was carried out by fixing/permeabilizing cells overnight in blocking buffer containing 3% BSA (Sigma) in DPBS-T, which contains DPBS + Ca^2+//Mg^2+ with 0.3% Triton-X100 (Sigma). Fixed and permeabilized cells were incubated in primary antibodies diluted (as noted in Table 1) in antibody buffer, consisting of 1% BSA in DPBS-T, overnight at 4 °C.
(§9) Cells were washed in blocking buffer for >6 hours at 4 °C and subsequently incubated in secondary antibody diluted in antibody buffer overnight at 4 °C. Secondary antibodies were washed out in antibody buffer for >4 h at 4 °C, and hiPSCs were counterstained with DAPI (Fisher) at 10 µg/mL in DPBS-T for 2 h. hiPSCs were washed in DPBS-T for >2 h at 4 °C, and immediately before imaging, the DPBS-T was replaced with DPBS. […] Chemical dose-response experiments and experiments examining the time-course of marker expression during LPM differentiation were imaged at 10X magnification using the Cellomics ArrayScan or CellInsight Cx7 LZR High Content Screening Platform and HCS Studio Cell Analysis Software (Thermo Fisher). An artificial threshold was uniformly applied to all images to generate the percentage of DAPI+ nuclei that stained positively for FOXF1 or NANOG. Thresholding for FOXF1 and T was performed relative to undiffer-entiated hiPSCs, and thresholding for SALL4 and OCT4 was performed relative to a non-expressing cell type (human primary endothelial cells). Settings for image acquisition and processing were uniformly applied between XCL-1 clones. […] Experiments were repeated in quadruplicate unless otherwise stated, and data are presented as mean ± SEM. Nonlinear regression analysis was performed using the 4-parameter [inhibitor]-vs-response curve fitting algorithm in Prism (GraphPad).

[5] = tested on: hPSC; parameters: method as in PMID 24154490; details: cited from earlier work
[6] = tested on: mouse embryonic stem cells; details: cited from earlier work
[7] = tested on: XCL-1 hiPSC SALL4 Mock; test: cells; assay type: cell-based; details: Homo sapiens, 72 h; XCL-1 SALL4 Mock; 3 d differentiation; read-out: IC50 (±SEM) in SOX17 differentiation assay
Description: (§2) The assay was carried out as previously described with continuous dosing of chemical for 3 total days of differentiation. SOX17 staining and DAPI counter-staining were carried out as described, and assays were imaged via high content imaging. […]
(§3) Supplementary Figure 7. Dose-response characterization of the influence […]
(§4) of XCL-1 clones. High content imaging analysis of XCL-1 hiPSC clones that were differentiated for 3 days in the presence of compound and subsequently stained for SOX17 and counter-stained with DAPI. Untreated DMSO control is omitted. Data represent the mean +/- SEM %SOX17 cells
(§5) (relative to control) from 4 independent experiments. Nonlinear regression […]
(§6) variable slope plotting tool in GraphPad Prism. A-C: Dose-response […]
(§7) in cereblon mock (hollow circles) or CRBN KO/KI (red filled circles) clones. D- […]

[8] = tested on: XCL-1 hiPSC CRBN Mock; test: cells; assay type: cell-based; details: Homo sapiens, 72 h; XCL-1 CRBN Mock; 3 d differentiation; read-out: IC50 (±SEM) in SOX17 differentiation assay
Description: as §2, §3, §4, §5, §6, §7

[9] = tested on: XCL-1 hiPSC CRBN KO/KI; test: cells; assay type: cell-based; details: Homo sapiens, 72 h; XCL-1 CRBN KO/KI; 3 d differentiation; read-out: IC50 (±SEM) in SOX17 differentiation assay
Description: as §2, §3, §4, §5, §6, §7

[10] = tested on: XCL-1 hiPSC SALL4^G416A; test: cells; assay type: cell-based; details: Homo sapiens, 72 h; XCL-1 SALL4^G416A; 3 d differentiation; read-out: IC50 (±SEM) in SOX17 differentiation assay
Description: as §2, §3, §4, §5, §6, §7

[11] = tested on: XCL-1 hiPSC CRBN Mock; test: LPM differentiation assay (FOXF1 high content imaging), XCL-1 CRBN Mock clone; assay type: cell-based; details: Homo sapiens, 48 h, % FOXF1+ cells after 2 d in APEL2+GSKi, read-out: IC50 (±SEM) in LPM differentiation assay
Description: On the day after seeding, the medium was replaced with 100 µL/well of mTeSR-1 (control) or APEL2 + GSKi containing either DMSO or diluted compounds (for a final DMSO concentration of 0.2%). The same conditions were replenished the following day for a total of 2 d of differentiation, and the following day (3 d after seeding), the medium was aspirated, and hiPSCs were fixed in 10% NBF for 15 min at room temperature.
as §8, §9

[12] = tested on: XCL-1 hiPSC CRBN KO/KI; test: LPM differentiation assay (FOXF1 high content imaging), XCL-1 CRBN KO/KI clone; assay type: cell-based, human; details: for IC50: Homo sapiens, 48 h, XCL-1 CRBN KO/KI, % FOXF1+ cells after 2 d in APEL2+GSKi, read-out: IC50 (±SEM) in LPM differentiation assay
Description: On the day after seeding, the medium was replaced with 100 µL/well of mTeSR-1 (control) or APEL2 + GSKi containing either DMSO or diluted compounds (for a final DMSO concentration of 0.2%). The same conditions were replenished the following day for a total of 2 d of differentiation, and the following day (3 d after seeding), the medium was aspirated, and hiPSCs were fixed in 10% NBF for 15 min at room temperature. For time-course experiments, cells were fixed at the specified intervals after the start of LPM differentiation.
as §8
Cells were washed in blocking buffer for >6 hours at 4 °C and subsequently incubated in secondary antibody diluted in antibody buffer overnight at 4 °C. Secondary antibodies were washed out in antibody buffer for >4 h at 4 °C, and hiPSCs were counterstained with DAPI (Fisher) at 10 µg/mL in DPBS-T for 2 h. hiPSCs were washed in DPBS-T for >2 h at 4 °C, and immediately before imaging, the DPBS-T was replaced with DPBS. Initial characterization of LPM differentiation by immunofluorescence was carried out using the A1R confocal microscope (Nikon) equipped with 10X objective, and automated object analysis was carried out using NIS Elements v5 software (Nikon). Chemical dose-response experiments and experiments examining the time-course of marker expression during LPM differentiation were imaged at 10X magnification using the Cellomics ArrayScan or CellInsight Cx7 LZR High Content Screening Platform and HCS Studio Cell Analysis Software (Thermo Fisher). An artificial threshold was uniformly applied to all images to generate the percentage of DAPI+ nuclei that stained positively for FOXF1 or NANOG. Thresholding for FOXF1 and T was performed relative to undiffer-entiated hiPSCs, and thresholding for SALL4 and OCT4 was performed relative to a non-expressing cell type (human primary endothelial cells). Settings for image acquisition and processing were uniformly applied between XCL-1 clones. The capacity of all XCL-1 clones and Gibco hiPSCs to undergo LPM differentiation in the high content format was assessed by FOXF1 and NANOG immunostaining. […] Experiments were repeated in quadruplicate unless otherwise stated, and data are presented as mean ± SEM. Nonlinear regression analysis was performed using the 4-parameter [inhibitor]-vs-response curve fitting algorithm in Prism (GraphPad).
Using CRISPR/Cas9-mediated gene editing, both CRBN alleles were knocked out in XCL-1 hiPSCs cells, followed by the insertion at the AAVS1 locus of a transgene encoding human CRBN with E377V and V388I mutations (clone hereafter referred to as CRBN KO/KI).

[13] = target: T2, SALL4^G416A (Homo sapiens, UniProt Q9UJQ4, G416A); test: SALL4 MFI by high content imaging, XCL-1 SALL4^G416A hiPSCs; assay type: cell-based; details: SALL4^G416A hiPSC clone, 8 h of treatment
T2 construct: parental hiPSCs were engineered to express a homozygous G416A mutation in the endogenous SALL4 locus; endogenous in cells; host or cells: XCL-1 SALL4^G416A hiPSC clone (1E6), CRISPR/Cas9 knock-in at the endogenous locus
Description: as §1

[14] = target: T3, human SALL4 (Homo sapiens, UniProt Q9UJQ4); test: Immunoblot of SALL4 degradation in Lenti-x 293 CRBN-/- cells expressing human CRBN variants; assay type: cell-based; details: 20 µM thalidomide, 10 µM lenalidomide, 1 µM pomalidomide, 24 hours; relative to wild-type human CRBN
T3 construct: expressed in transfected cells; host or cells: Lenti-x 293 CRBN CRISPR KO (CRBN-/-) cells stably expressing human SALL4, transiently transfected with FLAG-CRBN variants
T3 sequence (Q96SW2 whole entry partner): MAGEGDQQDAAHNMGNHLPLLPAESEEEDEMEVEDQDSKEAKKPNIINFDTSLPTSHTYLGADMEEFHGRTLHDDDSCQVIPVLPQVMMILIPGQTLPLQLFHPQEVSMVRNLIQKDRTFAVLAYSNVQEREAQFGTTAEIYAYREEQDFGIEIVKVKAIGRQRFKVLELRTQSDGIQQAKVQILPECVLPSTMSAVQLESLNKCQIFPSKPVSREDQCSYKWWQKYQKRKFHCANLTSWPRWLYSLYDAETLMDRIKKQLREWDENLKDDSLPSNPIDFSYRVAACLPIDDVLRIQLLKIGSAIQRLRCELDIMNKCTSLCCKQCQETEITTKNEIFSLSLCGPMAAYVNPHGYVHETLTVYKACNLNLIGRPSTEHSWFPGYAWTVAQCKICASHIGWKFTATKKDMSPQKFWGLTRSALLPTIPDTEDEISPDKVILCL
T3 sequence (Q16531 whole entry partner): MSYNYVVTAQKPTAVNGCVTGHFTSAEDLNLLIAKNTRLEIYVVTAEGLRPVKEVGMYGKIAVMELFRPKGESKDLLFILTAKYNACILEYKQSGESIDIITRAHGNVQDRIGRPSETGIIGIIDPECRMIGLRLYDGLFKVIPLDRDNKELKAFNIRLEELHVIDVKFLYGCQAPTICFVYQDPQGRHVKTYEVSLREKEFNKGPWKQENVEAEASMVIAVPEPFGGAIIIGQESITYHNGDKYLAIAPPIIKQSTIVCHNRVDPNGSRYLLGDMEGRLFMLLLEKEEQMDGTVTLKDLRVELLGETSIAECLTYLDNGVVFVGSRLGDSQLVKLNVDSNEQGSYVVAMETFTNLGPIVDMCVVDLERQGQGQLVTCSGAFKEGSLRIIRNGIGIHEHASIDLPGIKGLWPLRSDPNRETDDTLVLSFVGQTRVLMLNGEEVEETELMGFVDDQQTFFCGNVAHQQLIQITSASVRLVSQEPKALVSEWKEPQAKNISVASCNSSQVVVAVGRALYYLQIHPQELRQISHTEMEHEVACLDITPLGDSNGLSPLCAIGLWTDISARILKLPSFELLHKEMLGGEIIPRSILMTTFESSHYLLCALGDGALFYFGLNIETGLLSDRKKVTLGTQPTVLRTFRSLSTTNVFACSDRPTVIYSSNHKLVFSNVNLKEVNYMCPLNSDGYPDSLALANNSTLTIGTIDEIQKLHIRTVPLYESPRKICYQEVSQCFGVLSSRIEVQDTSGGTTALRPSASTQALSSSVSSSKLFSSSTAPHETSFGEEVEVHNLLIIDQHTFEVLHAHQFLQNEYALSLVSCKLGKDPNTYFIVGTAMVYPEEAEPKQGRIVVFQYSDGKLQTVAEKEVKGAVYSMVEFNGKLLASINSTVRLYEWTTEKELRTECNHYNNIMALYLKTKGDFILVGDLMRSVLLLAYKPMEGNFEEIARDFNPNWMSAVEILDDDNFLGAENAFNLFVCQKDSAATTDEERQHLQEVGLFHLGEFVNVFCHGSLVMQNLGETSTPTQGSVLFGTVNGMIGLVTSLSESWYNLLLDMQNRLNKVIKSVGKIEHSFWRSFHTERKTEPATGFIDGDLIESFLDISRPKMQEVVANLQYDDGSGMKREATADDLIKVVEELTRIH
T3 sequence (Q9UJQ4 whole entry): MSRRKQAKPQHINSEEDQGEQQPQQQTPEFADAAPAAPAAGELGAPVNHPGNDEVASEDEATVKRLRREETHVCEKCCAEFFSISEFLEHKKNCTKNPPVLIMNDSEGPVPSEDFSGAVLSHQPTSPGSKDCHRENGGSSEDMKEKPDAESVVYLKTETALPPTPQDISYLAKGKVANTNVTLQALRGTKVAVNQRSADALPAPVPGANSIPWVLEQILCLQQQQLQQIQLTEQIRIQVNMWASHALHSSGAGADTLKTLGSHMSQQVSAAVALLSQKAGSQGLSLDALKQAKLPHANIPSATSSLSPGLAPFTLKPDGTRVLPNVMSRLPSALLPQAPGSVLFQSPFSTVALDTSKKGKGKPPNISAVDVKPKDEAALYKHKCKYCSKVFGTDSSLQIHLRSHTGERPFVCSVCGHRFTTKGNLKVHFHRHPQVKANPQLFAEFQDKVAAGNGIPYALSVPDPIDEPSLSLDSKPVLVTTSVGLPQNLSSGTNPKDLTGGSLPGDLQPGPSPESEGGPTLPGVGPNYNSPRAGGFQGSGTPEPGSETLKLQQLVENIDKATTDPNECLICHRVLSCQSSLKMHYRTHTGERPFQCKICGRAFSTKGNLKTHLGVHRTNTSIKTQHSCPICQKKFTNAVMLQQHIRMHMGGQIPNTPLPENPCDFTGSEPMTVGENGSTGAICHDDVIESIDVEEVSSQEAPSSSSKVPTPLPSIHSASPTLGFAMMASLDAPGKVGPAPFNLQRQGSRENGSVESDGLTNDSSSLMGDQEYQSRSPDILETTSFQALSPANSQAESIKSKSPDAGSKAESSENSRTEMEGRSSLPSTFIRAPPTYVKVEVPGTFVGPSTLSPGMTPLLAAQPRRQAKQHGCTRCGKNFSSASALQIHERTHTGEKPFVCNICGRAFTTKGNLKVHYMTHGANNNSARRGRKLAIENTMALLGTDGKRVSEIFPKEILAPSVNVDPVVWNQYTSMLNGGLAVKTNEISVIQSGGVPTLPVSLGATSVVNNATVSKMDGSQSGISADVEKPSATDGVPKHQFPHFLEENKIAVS
Description: SALL4 were transiently transfected with vectors expressing GFP or human CRBN variants and treated with
CRBN-/- cells transfected with empty vector were used as a negative control. The cells were then lysed and
characterized by immunoblotting analysis for SALL4, ZFP91, GFP, CRBN, and β-actin.
CRBN CRISPR KO (CRBN -/-) cells were maintained in Dulbecco’s Modified Eagle’s medium (DMEM;
Invitrogen) supplemented with 10% fetal bovine serum (FBS; Invitrogen). All cell lines were confirmed
mycoplasma-negative using the MycoAlert Mycoplasma Detection Kit (Lonza).
CRBN-/- cells stably expressing human SALL4 was transiently transfected with 4 µg of pcDNA3-GFP, pcDNA3-
FLAG-CRBN WT (isoform 1),pcDNA3-FLAG-CRBN E377V (isoform 1) or pcDNA3-FLAG-CRBN V388I (isoform
Cells were then harvested and lysed, and
whole cell extract was subjected to immunoblotting analysis. Cells were washed with ice-cold 1X PBS and
lysed in 50mM Tris-HCl [pH 7.6], 150 mM NaCl, 1% Triton X-100, and 1x Complete ULTRA protease inhibitor
cocktail and PhosSTOP phosphatase inhibitor cocktail. Whole cell extracts were collected after
centrifugation at top speed for 10 minutes, resolved by sodium dodecyl sulfate polyacrylamide gel
electrophoresis, transferred onto a nitrocellulose membrane using the Turboblot system (Bio-Rad), and
probed with the indicated primary antibodies. Bound antibodies were detected with IRDye®-680 or -800 […]

T2 sequence (Q96SW2 whole entry partner): as the sequence (Q96SW2 whole entry partner) above
T2 sequence (Q16531 whole entry partner): as the sequence (Q16531 whole entry partner) above
T2 sequence (Q9UJQ4 whole entry G416A): as the sequence (Q9UJQ4 whole entry) above, with G416A counted along it
T1 sequence (Q9UJQ4 whole entry): as the sequence (Q9UJQ4 whole entry) above
T1 sequence (Q96SW2 whole entry): as the sequence (Q96SW2 whole entry partner) above
T1 sequence (Q16531 whole entry partner): as the sequence (Q16531 whole entry partner) above

SMILES | time-course of SALL4 MFI ([1]; 20 µM, Gibco hiPSCs in mTeSR1 or APEL2+GSKi, 2, 8 and 24 h after dosing) | concentrations with cytotoxicity or functional effects on hPSCs and hPSC-derived mesoderm [2] | normalized viability (CellTiter Glo 3D) versus DMSO [3] | IC50 [4] | reduction of %FOXF1+ cells via high content imaging ([4]; thalidomide at 20 µM, atRA at 3 µM, during LPM differentiation) | non-cytotoxic concentrations at which the definitive endoderm assay was sensitive [5] | concentration for nonspecific toxicity in the mEST [6] | IC50 [7] | IC50 [8] | IC50 [9] | IC50 [10] | IC50 [11] | inhibition of LPM differentiation at the highest concentration tested ([12]; 50 µM, CRBN KO/KI clone) | IC50 [12] | effect on SALL4 MFI [13] | SALL4 degradation in human cells expressing CRBN with the V388I mutation [14] | effect on SALL4 MFI ([1]; Gibco hiPSCs, 8 h of treatment, dose-response)
O=C1CCC(N2C(=O)c3ccccc3C2=O)C(=O)N1 (stereo not shown) [Thalidomide, thalidomide] | rapid decline in SALL4 MFI 2 h after dosing | above 100 µM | No statistical differences | 0.31 ± 0.19 µM | 30% | below 1 µM | above 400 µM | 1.8 ± 2.6 µM | 1.9 ± 2.3 µM | > 50 µM | > 50 µM | 0.56 ± 0.45 µM | inhibited LPM differentiation albeit not to the same magnitude as control hiPSCs | > 50 µM | unchanged | failed to induce SALL4 degradation | –
CC1=C(/C=C/C(C)=C/C=C/C(C)=C/C(=O)O)C(C)(C)CCC1 [atRA, all-trans retinoic acid] | – | – | No statistical differences | 0.82 ± 0.78 µM | – | – | – | – | – | – | – | 2.7 ± 2 µM | – | 8.17 ± 5.1 µM | unchanged | – | did not reduce SALL4 MFI
